Assay results: patent publication US20200360400A1, “COMPOSITIONS AND METHODS FOR THE TREATMENT OF ADDICTION, PSYCHIATRIC DISORDERS, AND NEURODEGENERATIVE DISEASE” (Embera NeuroTherapeutics, Inc., priority 2017, published 2020)
Entries after “also recorded” stand apart in the source; their conditions may differ.

What was measured:
[1] = Cocaine interaction crossover study: pharmacokinetics
Experimental: This was a double-blind, placebo-controlled, randomized, crossover study of non-treatment-seeking subjects with cocaine use disorder (CUD). […] On the last day of each dosing week, subjects received 40 mg IV cocaine. Primary outcomes were safety and pharmacokinetics (PK).
• Subjects: Non-treatment seeking subjects with cocaine use disorder, ages 21-55 • Design: Single center, randomized, double-blind (DB), placebo-controlled (PLB), 2-period crossover design • Dosing: • One week of dosing with MET/OX (EMB-001) and one week of placebo, separated by one-week washout (randomized, DB, counterbalanced) • 40 mg IV cocaine & saline infusions on 7th day of dosing of MET/OX and placebo • Dose of MET/OX: 720 mg MET & 24 mg OX, BID • Primary Objective: Safety of MET/OX when co-administered with cocaine • Secondary Objectives: • Effects of MET/OX on PK of cocaine • Effects of cocaine on PK of MET/OX • Exploratory Objective: • Effects of MET/OX on measures of craving and subjective effects produced by cocaine

adult male Wistar rats [2] = assay: Intravenous cocaine self-administration under a multiple, alternating schedule of food reinforcement and cocaine self-administration; format: in vivo, rat
Experimental: Adult male Wistar rats were trained under a multiple, alternating schedule of cocaine and food self-administration. This schedule consisted of alternating periods of cocaine access and food reinforcement. In some instances, as described further below, three doses of cocaine (0.125, 0.25, or 0.50 mg/kg/infusion) were tested. Rats were also periodically trained with saline substitution (cocaine extinction) and food extinction during the same session.
In our model, rats were exposed to alternating 15-minute periods of access to cocaine self-administration and food reinforcement. Food was used to control for potential nonspecific, ataxis effects of the drugs and combinations.
More specifically, adult male Wistar rats were implanted with chronic jugular catheters. Following recovery from surgery, the rats were trained to respond under a multiple, alternating schedule of food reinforcement and cocaine self-administration. Food-maintained responding was used to control for the non-specific motor effects of the various treatments. During the food component of the schedule, the stimulus light located above the food response lever was illuminated to indicate the availability of food reinforcement. […] A 25-second timeout followed the delivery of each food pellet. During this timeout, the stimulus light was darkened and responses on the food lever were counted but had no scheduled consequences. Responding on the other (cocaine) lever during the food component also had no scheduled consequences. […] Following 15 minutes of access to food, all stimulus lights in the chamber were darkened for a 1-minute timeout. Following the timeout, the stimulus light above the cocaine response lever was illuminated to indicate the availability of cocaine (0.125, 0.25, or 0.5 mg/kg/infusion). […] A 20-second timeout period followed each infusion. […] After 15 minutes of access to cocaine and a 1-minute timeout, the rats were again allowed 15 minutes access to the food component of the schedule. Access to food and cocaine alternated in this manner every 15 minutes during the two hour behavioral sessions so that each rat was exposed to food and cocaine for four 15-minute periods each. Each behavioral session began with 15 minutes access to either food or cocaine, and this alternated daily. Stable baselines of responding were established when the total number of cocaine and food presentations, as well as the number of presentations during each of the four exposures each session, varied less than 10% for three consecutive sessions. At least three different doses of cocaine (e.g., 0.125, 0.25, and 0.5 mg/kg/infusion) were tested. Rats were first trained to self-administer 0.25 mg/kg/infusion, our standard dose of cocaine. When responding stabilized, the dose was changed to 0.125 or 0.5 mg/kg/infusion as appropriate.
Once stable baselines of responding were obtained, dose-response curves for the various compounds were individually generated for each rat. Rats were treated with each dose at least twice with a minimum of two days of baseline cocaine self-administration interspersed between each test. Each group of rats was tested with only two of the test compounds to minimize potential carryover effects. […] This rationale guided the selection of the doses of each of the compounds in the combination studies. Each experimental group consisted of between 8 and 10 rats.

adult male Wistar rats [3] = assay: Cue-induced reinstatement of extinguished cocaine seeking; format: in vivo, rat; conditions: for reinstatement of extinguished cocaine seeking: pretreatment with the drug alone, general statement
Experimental: The experiments described herein were designed to investigate whether or not drug combinations identified as effective in reducing cocaine self-administration would also block the ability of conditioned cues to reinstate extinguished cocaine-seeking behavior. Adult male Wistar rats were implanted with chronic jugular catheters and trained to self-administer cocaine (0.25 mg/kg/infusion) by pressing one of the response levers in the experimental chamber (i.e., the “active” or “cocaine” lever) under a fixed-ratio four (FR4) schedule of reinforcement during daily 2-hour sessions conducted 5 days per week. At the start of each session, both levers were extended into the chamber and the stimulus light above the active lever was illuminated to indicate the availability of cocaine. […] A 20-second timeout period followed each infusion. The stimulus light above the active lever and the house light and tone compound stimulus were extinguished during the timeout period, and the light above the active lever was illuminated once the timeout ended. When responding on the active lever varied less than 20% for two consecutive days, the response requirement was increased to FR2. When similar stability was observed under the FR2 schedule or reinforcement, the response requirement was increased to the final ratio of four. The criteria for stable responding under the FR4 schedule of reinforcement was a minimum of 10 days of exposure to this schedule that concluded with at least three consecutive days when responding varied by less than 10%. […] Once stable cocaine self-administration was observed, rats were exposed to extinction; the rats were placed into the behavioral chambers, but responding on the “cocaine” (active) lever produced no programmed consequences. Extinction training continued until responding decreased to less than 20% of baseline self-administration. Then reinstatement testing commended. The rats were placed into the experimental chambers, both response levers were extended into the chamber, and the stimulus light above the “active” lever was illuminated as during self-administration training. […] Responding on the “active” lever during reinstatement testing was taken as an index of cocaine-seeking behavior. Each experimental group consisted of 8 to 10 rats.

[4] = rat, in vivo
Experimental: Adult male Wistar rats (90 to 120 days old) were implanted with chronic, indwelling jugular catheters and were allowed to recover from surgery. […] Thirty minutes following the drug combination or vehicle injection, the rats received intravenous injections of cocaine (0.25 mg/kg/infusion) every 2 minutes for 1 hour. After the final injection of cocaine, blood was collected from the catheter for the analysis of cocaine and its metabolites ecgonine methyl ester and benzoylecgonine. […] All drug concentrations were determined using GCMS procedures.

male Wistar rats [5] = assay: Cocaine self-administration following adrenalectomy, with plasma CORT and ACTH; format: in vivo, rat
Experimental: Subjects: Male Wistar rats were housed in an AALAC-approved animal care facility and maintained at 85-90% of their free-feeding body weights. These rats were on a reversed 12-hour light, 12-hour dark cycle from the beginning of the experimental procedures.
Catheter surgery: A chronic indwelling jugular catheter (0.012 in i.d.×0.025 in o.d., silicone tubing) was implanted in each rat under pentobarbital anesthesia (50 mg/kg ip) with methyl atropine nitrate pretreatment (10 mg/kg ip). The animals were injected with sterile penicillin G procaine suspension (75,000 units, im) immediately before surgery and allowed 5-7 days to recover.
Adrenalectomy surgery: Animals were anesthetized with pentobarbital (50 mg/kg ip) with methyl atropine nitrate pretreatment (10 mg/kg ip). The adrenal glands were located through an incision and removed. The animals were injected with sterile penicillin G procaine suspension (75,000 units, im) and allowed to recover from surgery for 7 days. After ADX, the rats received drinking water containing 0.9% saline and 1.0% sucrose. Animals in the SHAM group received the same surgery except that the adrenal glands were not removed. They continued to receive tap water to drink.
Equipment: Sound-attenuating operant conditioning chambers (Med-Associates, Inc.) were equipped with two response levers and a stimulus light located directly above each lever. A food pellet dispenser was located between the levers. […] An IBM-compatible personal computer and interface system was used to program the procedure and collect the experimental data.
Alternating Schedule of Cocaine and Food Reinforcement: Following recovery from catheter surgery, the rats were trained to respond under a multiple, alternating schedule of food reinforcement and cocaine self-administration. […]
Hormone Measurements: Blood was collected via the implanted catheters at the end of the behavioral test sessions for the measurement of plasma CORT and adrenocorticotropin releasing hormone (ACTH). […] Plasma CORT and ACTH (ng/ml) were subsequently determined by radioimmunoassay.

male Wistar rats [6] = assay: Forced Swim Test (FST), animal model of depression
Wistar-derived male rats = assay: Intravenous nicotine self-administration, fixed-ratio schedule (FR1, TO-20 s); format: in vivo, rat
Experimental: Animals: Wistar-derived male rats (250-300 g) were purchased from Harlan Laboratories (Livermore, Calif.), housed in groups of two, and maintained in a temperature-controlled environment on a 12 h:12 h light cycle. Before testing, animals were provided free access to food and water during a one-week habituation period, and were handled daily for several days to desensitize them to handling stress. Each rat included in the data analysis received all treatments in order to obtain reliable estimates of drug effects and decrease the impact of inter-animal variability. Animals were handled, housed, and sacrificed in accord with the current NIH guidelines and all applicable local, state, and federal regulations and guidelines.
Varenicline-HCl (Ontario Chemicals), at 1 mg/kg (expressed as free base), was used as a positive control and administered subcutaneously. Nicotine hydrogen tartrate (Sigma Aldrich) was dissolved in isotonic saline at 0.3 mg/mL (expressed as free base), adjusted to pH 7.0, and diluted to deliver 0.03 mg/kg/infusion. All test compounds were administered 30 minutes prior to nicotine self-administration sessions in a volume of 1 mL/kg.
Apparatus: Food training and nicotine self-administration took place in 8 standard Coulbourn™ operant conditioning chambers. Each chamber was housed in a sound-attenuating chamber. […]

[7] = smoking cessation (Nides et al. 2006); cited from earlier work
[8] = after 40 mg IV cocaine, + EMB-001
[9] = after 40 mg IV cocaine, + Placebo
[10] = high dose of the drug alone, ip
[11] = low, ineffective dose of the drug alone, ip
[12] = pretreatment with the drug alone, general statement

CN1[C@H]2CC[C@@H]1[C@@H](C(=O)O)[C@@H](OC(=O)c1ccccc1)C2 [Benzoylecgonine, benzoylecgonine]
AUC 0-∞ [1, 8]: 3080 ± 689 ng·h/mL | Cmax [1, 8]: 198 ± 55 ng/mL | AUC 0-∞ [1, 9]: 2970 ± 720 ng·h/mL | Cmax [1, 9]: 199 ± 45 ng/mL

CCCCN(CC)c1nc(C)nc2c1c(C)cn2-c1c(C)cc(C)cc1C [CP-154,526]
cocaine self-administration (number of cocaine infusions) (adult male Wistar rats [2]; [10]): reduced cocaine self-administration | food-maintained responding (adult male Wistar rats [2]; [10]): without affecting food-maintained responding | cocaine self-administration (number of cocaine infusions) (adult male Wistar rats [2]; [11]): did not significantly affect | food-maintained responding (adult male Wistar rats [2]; [11]): did not significantly affect | cocaine self-administration (adult male Wistar rats [2]; [12]): decrease | reinstatement of extinguished cocaine seeking (adult male Wistar rats [3]): decrease

COC(=O)[C@@H]1[C@H]2CC[C@@H](C[C@@H]1O)N2C [Ecgonine Methyl Ester, ecgonine methyl ester]
AUC 0-∞ [1, 8]: 244 ± 50 ng·h/mL | Cmax [1, 8]: 20.5 ± 3.7 ng/mL | AUC 0-∞ [1, 9]: 234 ± 45 ng·h/mL | Cmax [1, 9]: 21.5 ± 3.7 ng/mL

Cc1nnc2n1-c1ccc(Cl)cc1C(c1ccccc1)=NC2 [alprazolam]
cocaine self-administration (number of cocaine infusions) (adult male Wistar rats [2]; [10]): reduced cocaine self-administration | food-maintained responding (adult male Wistar rats [2]; [10]): without affecting food-maintained responding | cocaine self-administration (number of cocaine infusions) (adult male Wistar rats [2]; [11]): did not significantly affect | food-maintained responding (adult male Wistar rats [2]; [11]): did not significantly affect | cocaine self-administration (adult male Wistar rats [2]; [12]): decrease | reinstatement of extinguished cocaine seeking (adult male Wistar rats [3]): decrease

CC(=O)N1CCN(c2ccc(OCC3COC(Cn4ccnc4)(c4ccc(Cl)cc4Cl)O3)cc2)CC1 (stereo not drawn) [ketoconazole]
minimally effective dose (reduces cocaine self-administration by at least 50% without affecting food-maintained responding) (adult male Wistar rats [2]; drug alone): 25 mg/kg | cocaine self-administration (number of cocaine infusions) (adult male Wistar rats [2]; [11]): no effect; also recorded: did not significantly affect | food-maintained responding (adult male Wistar rats [2]; [11]): no effect; also recorded: did not significantly affect | cocaine self-administration (adult male Wistar rats [2]; [12]): decrease | reinstatement of extinguished cocaine seeking (adult male Wistar rats [3]): decrease

CC(C)(c1cccnc1)C(O)c1cccnc1 (stereo not drawn) [metyrapol]
food-maintained responding (adult male Wistar rats [2]; 25, 50, 100 and 150 mg/kg ip 30 min before): not significantly affected except at the highest doses | cocaine self-administration (adult male Wistar rats [2]; 25, 50, 100 and 150 mg/kg ip 30 min before, cocaine 0.125, 0.25, 0.5 mg/kg/infusion): dose dependently decreased | AUC 0-∞ ([1]; human, in vivo): 5480 ± 4840 ng·h/mL | Cmax ([1]; human, in vivo): 1850 ± 1570 ng/mL

CC(C)(C(=O)c1cccnc1)c1cccnc1 [metyrapone]
cocaine self-administration (number of cocaine infusions) (adult male Wistar rats [2]; [10]): reduced cocaine self-administration | food-maintained responding (adult male Wistar rats [2]; [10]): without affecting food-maintained responding | cocaine self-administration (number of cocaine infusions) (adult male Wistar rats [2]; [11]): did not significantly affect | food-maintained responding (adult male Wistar rats [2]; [11]): did not significantly affect | plasma corticosterone (adult male Wistar rats [2]; pretreatment with the drug alone): significant dose-related decreases | cocaine self-administration (adult male Wistar rats [2]; [12]): decrease; also recorded: significant dose-related decreases | cue-induced reinstatement (responding on the active lever) (adult male Wistar rats [3]; chronic, 50 mg/kg, ip, once per day for 14 days): reduced cocaine seeking to levels seen when only saline was delivered | reinstatement of extinguished cocaine seeking (adult male Wistar rats [3]): decrease | plasma concentration in the presence of cocaine [4]: did not affect | influence on plasma concentration of the other drug ([4]; ip): did not influence | blocking cocaine self-administration following adrenalectomy compared to pre-adrenalectomy values (male Wistar rats [5]; MET 50, OX 5, OX 10 mg/kg and combinations): as effective, and possibly even more effective | plasma ACTH (male Wistar rats [5]; before adrenalectomy): not changed | plasma corticosterone (male Wistar rats [5]; before adrenalectomy): not changed | AUC 0-∞ ([1]; human, in vivo): 900 ± 492 ng·h/mL | Cmax ([1]; human, in vivo): 429 ± 234 ng/mL | immobility in the FST (male Wistar rats [6]; acute and chronic administration, alone and in combination, oxazepam 5 or 10, metyrapone 25 or 50 mg/kg): effective in reducing immobility | immobility time (male Wistar rats [6]; chronic, metyrapone 50 mg/kg alone (Met50 group)): showed a lessening of immobility time | group means of immobility time relative to vehicle (tolerance) (male Wistar rats [6]; chronically treated groups that received only Ox or Met): equal to or exceeded the vehicle

NCc1cc(=O)[nH]o1 [muscimol]
cocaine self-administration (number of cocaine infusions) (adult male Wistar rats [2]; [10]): reduced cocaine self-administration | food-maintained responding (adult male Wistar rats [2]; [10]): without affecting food-maintained responding | cocaine self-administration (number of cocaine infusions) (adult male Wistar rats [2]; [11]): did not significantly affect | food-maintained responding (adult male Wistar rats [2]; [11]): did not significantly affect

c1cnc2cc3c(cc2n1)[C@@H]1CNC[C@H]3C1 [varenicline]
nicotine infusions over the 1-hour test session (Wistar-derived male rats; 1 mg/kg sc, reduced from 15.4±1.0): 7.7±1.2 | reduction of nicotine self-administration, varenicline compared with the metyrapone:oxazepam combination (Wistar-derived male rats; fixed-ratio schedule): comparable to those seen with the lowest dose of the combination | quit rates after one year [7]: 14%
